# Measured values: a melting point compilation (Tetko et al.; mined from patent text by program, amines drawn as free bases though some values may be those of a salt)
row,melting point [°C],Compound
1,176 to 179,CC(C)(C)CNC(=O)c1ccc(Br)c(C(=O)O)c1
2,180,CCOC(=O)c1cc2c(Cl)cc(Cl)cc2[nH]1
3,182 to 186,N=C(N)N1CCN(C23CC4CC(CC(C4)C2)C3)CC1
4,85 to 89,CC(C)c1cc(C(C)C)c(CC(=O)NS(=O)(=O)Oc2c(C(C)C)cc([N+](=O)[O-])cc2C(C)C)c(C(C)C)c1
5,240 to 242,Cc1cccc(NC(=O)Nc2cccc3c2C2CC(O)CCN2C3=O)n1 (stereo unspecified)
6,211 to 212,COc1cc(OC)cc(N2CCN(C(=S)Nc3cc4ccccc4nc3C)CC2)c1
7,199 to 200,O=c1c2cc(F)c(Cl)nc2n(-c2ccccc2F)c(=O)n1OCc1ccccc1
8,162 to 165,c1cncc(-c2nnc(NCC3CC3)s2)c1
9,49 to 50,CCS(=O)(=O)N[C@H](C(=O)NCc1ccc(O)c(OC)c1)C(C)C
10,108 to 110,c1cc2nnnn2cc1C1CO1 (stereo unspecified)
11,111 to 117,COc1ccc(CNc2nc(C)nc(C)c2Cl)cc1OCc1ccccc1
12,200 to 205,O=C(O)c1c2n(c3cc(N4CCNCC4)c(F)cc3c1=O)C(c1ccccc1)S2 (stereo unspecified)
13,111 to 113,OCc1cc(-c2ccc(C(F)(F)F)cc2)on1
14,187,O=C(N[C@H]1CCN(C(=O)c2cc(C(F)(F)F)cc(C(F)(F)F)c2)[C@H](Cc2ccccc2)C1)c1ccnc2ccccc12
15,185 to 187,O=c1[nH]c2ccccc2n1CCCN1CCC(c2nsc3ccccc23)CC1
16,159,CCOc1ccc(-c2c(C(=O)OC)c(C(=O)OC)c(O)c3cc(OC)c(OC)c(OC)c23)cc1OC
17,138 to 139,CSc1ccc(Br)cc1C(=O)Cn1cccc1
18,123 to 128,CC(Sc1cc(C(C)(C)C)c(O)c(C(C)(C)C)c1)C(=O)CC(C)(O)C(C)Sc1cc(C(C)(C)C)c(O)c(C(C)(C)C)c1 (stereo unspecified)
19,237 to 239,COc1nc2ccccc2nc1NC(=O)N1CCN(c2c(C)c(C)cc(C)c2C)CC1
20,141,C=CC(O)c1ccc2[nH]c(CCCC)nc(=O)c2c1 (stereo unspecified)
21,130 to 131,COc1ccc(Cc2cc(=O)[nH]c3nc(OCc4ccccn4)ncc23)cc1Cl
22,116 to 117,CC(C)Oc1nc(-c2ccc(Cl)cc2)c(CCC(=O)O)o1
23,121 to 123,O=C1CCCc2c(cccc2OCC2CO2)N1 (stereo unspecified)
24,85 to 92,COc1ccc(-c2c(C)c3cc(O)ccc3n2Cc2ccc(OCCN3CCCCC3)cc2)c(OC)c1
25,58 to 63,COc1cccc2c1OCN(CCc1ccc(C)cc1)C2

row,melting point [°C],Compound
1,203 to 207,CC(C)(C)c1cc(C(=O)Nc2cc(Cl)c(Cl)cc2NC(=O)NC23CC4CC(CC(C4)C2)C3)cc(C(C)(C)C)c1O
2,146 to 147,COc1ccc(C(=O)c2ccc(OCc3nc(-c4ccccc4)oc3C)cc2)c(OCC(=O)O)c1
3,219 to 221,Cc1c(-c2ccccc2)c(N2CC[C@H](N(C)C)C2)c2oc(N3CC(O)C3)nc2c1C#N
4,85 to 87,CCOC(C)OCc1ccccc1C(=NO)C(=O)NC (stereo unspecified)
5,107 to 108,CS(=O)(=O)c1cccc(Cc2cc3c(F)ccc(-c4cccc(C(=O)NCC(N)=O)c4)c3s2)c1
6,105 to 106,COc1ccc(CCNC(=O)C(F)(F)F)cc1NC(C)=O
7,109 to 110,CCOC(=O)Nc1c(Cl)cccc1[Si](C)(C)C
8,150 to 158,N#Cc1ccccc1-c1ccc2[nH]c(CCl)nc2c1
9,178 to 180,O=C(/C=C/C=C/C(=O)NCCCOc1cccc(CN2CCCC2)c1)NCCCOc1cccc(CN2CCCC2)c1
10,89 to 90,COc1ccc(-c2nc(Cn3ccnc3)cs2)cc1
11,263 to 264,NS(=O)(=O)c1cc(C(=O)O)cc(S)c1Cl
12,102 to 103,CC(C)C(NC(=O)OC(C)(C)C)C(=O)NC(C(=O)OCC1OC(n2cc(C=CBr)c(=O)[nH]c2=O)CC1Cl)C(C)C (stereo unspecified)
13,136 to 137,CCOC(=O)C(O)=Cc1cc(OCc2ccccc2)ncn1
14,72 to 74,CCOC(=O)CCC1CCCN2CCc3c([nH]c4ccccc34)C12 (stereo unspecified)
15,119 to 120,COc1ccccc1C(=O)OC1=C(c2nnc(-c3ccccc3OC)o2)N(C)S(=O)(=O)c2ccccc21
16,134 to 137,CCOC(=O)C(=O)Nc1cnccn1
17,97 to 98,Clc1ccc(CCC(Cn2ccnc2)SCc2ccco2)cc1 (stereo unspecified)
18,100 to 103,CCn1cnc2c(Cl)nc(Cl)nc21
19,73 to 74.5,CC(C)(C)OC(=O)Oc1ccc([N+](=O)[O-])cc1
20,158,COC=Nc1c(S(=O)(=O)C(F)(F)F)c(-c2ncon2)nn1-c1c(Cl)cc(C(F)(F)F)cc1Cl
21,93 to 94,CC(C)CC1(CCCCCl)C(=O)Nc2c(Cl)cc(Cl)cc21 (stereo unspecified)
22,68 to 69,C=CCOC(=O)c1ccc(CC(=O)OC(C)(C)C)cc1
23,150 to 152,O=C1COCCN1c1ccc([N+](=O)[O-])cc1
24,99,COc1ccc2cccc(C(=O)C(=O)O)c2c1
25,197,Fc1ccc(-c2cc(C(F)(F)F)n3ncc(-c4ccccn4)c3n2)cc1Cl

row,melting point [°C],Compound
1,125 to 127,CC1(C2CC2)NC(=O)Nc2ccc(-c3cccc(Cl)c3)cc21 (stereo unspecified)
2,90,Cc1cc(Br)c(N)cc1Cl
3,166,CCOC(=O)c1cn(N=C(C)C)c2c(F)c(F)c(F)cc2c1=O
4,174 to 175,CNC(=O)c1cccc(NC(=O)Cc2ccc3c(c2)OCO3)c1
5,234 to 236,Nc1ccn(C2OC(CO)C(O)C2O)c(=O)c1F (stereo unspecified)
6,166 to 169,O=C(O)COc1c(-c2cccc(C(F)(F)F)c2)cc(C(=O)NCCCCCCc2ccccc2)cc1-c1cccc(C(F)(F)F)c1
7,75 to 78,CCCCc1oc2ccccc2c1C(=O)NCc1ccc2c(-c3ccc(C(C)(C)C)cc3)c(OCc3nnn[nH]3)ccc2c1
8,153 to 155,Cc1cc(C)c(Nc2nc(C)ccc2S(=O)(=O)c2ccc(OCc3ccccc3[N+](=O)[O-])cc2)c(C)c1
9,92 to 94,Oc1ccc(Cl)c(Cl)c1OCC1CO1 (stereo unspecified)
10,83,C=CCC(C)(C)C(O)C(c1cccc(OC)c1)n1ccnc1 (stereo unspecified)
11,63.5 to 65,CC(C)(N)CCOc1ccc(Cl)nn1
12,117 to 118,CCS(=O)(=O)C(F)(F)C(O)(Cn1cncn1)c1ccc(F)cc1F (stereo unspecified)
13,156 to 157,Fc1ccc(-c2cc3cccc(Cl)n3n2)cc1
14,118 to 119,"O=C(CN1CCCC1=O)N1CCC(C2c3ncc(Br)cc3CCc3cc(Cl)cc(Br)c32)CC1 (single isomer, unassigned; (+))"
15,192 to 193,CS(=O)(=O)Nc1cc2occ(N3CCCC3=O)c(=O)c2cc1Oc1ccccc1
16,84 to 85,CON1CCCNC1=C[N+](=O)[O-]
17,178 to 179,COC(=O)CNC(=O)c1ccc(C(=O)NS(=O)(=O)c2ccc(CCNC(=O)CC3CCCCC3)cc2)cn1
18,148,COc1cc2c(c(C(C(N)=O)c3ccccc3)c1)CC(C)O2 (stereo unspecified)
19,119,CCCOc1cc(-n2c(=O)cc(C(F)(F)F)n(C)c2=O)c(F)cc1Br
20,142 to 143,O=C(O)CCc1cnoc1-c1cc(Cl)c(Cl)s1
21,117 to 118,CCN(CC)C(=O)c1cc(OC)cc(OC)c1-c1ccccc1
22,334 to 336,NC(=O)C(CCC(=O)O)N1Cc2c(N)cccc2C1=O (stereo unspecified)
23,100 to 101,COc1c(O)cccc1C(=O)C1CCN(CCc2ccc(F)cc2)CC1
24,73 to 74,CCCCNC(=O)C(O[Si](C)(C)C(C)(C)C)C(c1ccccc1)c1ccccc1 (stereo unspecified)
25,160 to 163,COC(=O)c1ncc(C(=O)NS(=O)(=O)c2ccccc2)cc1OC

row,melting point [°C],Compound
1,70 to 73,COC(=O)c1cccc2c1NCC2
2,268 to 269,CCn1c(=O)c2c(nc(/C=C/c3ccc(OCC(=O)O)cc3)n2C)n(CC)c1=O
3,60 to 63,CC(C)(C)N(NC(=O)c1ccccc1)C(=O)c1cccnc1
4,66 to 68,Cc1cc(F)ccc1-c1cnccn1
5,53.9 to 54.4,CCC(C)c1ccc(-n2c(-c3cc(C)c(OCCO)c(C)c3)nc3cc(F)ccc3c2=O)cc1 (stereo unspecified)
6,85 to 89,COC1=C(OC)C(=O)C2=C(CCC(CCn3ccccc3=O)CC2)C1=O
7,130 to 132,Cc1cccc(C=NN2CCN(C(c3ccccc3)c3ccccc3)CC2)n1
8,111 to 112,CCCCNC(=O)NC(=O)c1cc([N+](=O)[O-])cnc1C
9,166 to 167,O=C(O)COc1cc2ccsc2c(Cl)c1Cl
10,124 to 126,O=C(O)[C@H](O)C1CCCCC1
11,230 to 232,CC(C)CN1C(N)=CC(=O)N2CCN=C21
12,138 to 140,COC(=O)N=C(NC(=O)OC)Nc1ccc(SCC(C)C)cc1NC(=O)CSC
13,96 to 97,COCOc1cc(OC)ccc1C(=O)O
14,181 to 182,CC(C)(C)OC(=O)NNC(=O)c1cc(OCc2ccccc2)c(OCc2ccccc2)c(CSc2ccncc2)n1
15,231 to 233,CC1SC(C(=O)Nc2ccc(CN3CCOC3=O)cc2)Cc2cc3c(cc2C1=O)OCO3 (stereo unspecified)
16,125 to 127,CSC(=NC(=O)NC(C)C)NC(=O)NC(C)C
17,285 to 288,COc1cccc(OC)c1-c1cc2c(ccn2C)c2c1C(=O)NC2=O
18,155 to 156,c1ccc(CSc2nc3cc4c(cc3[nH]2)OCCO4)nc1
19,97 to 98,COC(=O)c1cn(Cc2ccc(OCc3ccccc3)cc2)cc1-c1ccccc1
20,83 to 84,C#CC1(OC(=O)NCCCC)CCN(CCC=C(c2ccc(F)cc2)c2ccc(F)cc2)CC1
21,129 to 132,CN(C)C(=O)C(C)(c1ccccc1)n1ccc(-c2ccccc2)n1 (stereo unspecified)
22,97 to 98,CCCCCCCC(O)C1(C)OC(C)=C(O)C1=O (stereo unspecified)
23,65 to 67,N#CC1(CCc2ccccc2)CCCCN1C(=O)c1ccccc1 (stereo unspecified)

row,Compound,melting point [°C]
1,Cc1ncn(-c2ccc(C#N)c(F)c2)n1,133 to 134
2,N#Cc1ncn2c1[C@@H]1CCN1C(=O)c1c-2cccc1C(F)(F)F,115 to 119
3,CC1(C)CCC(C)(C)c2cc(-c3cc(Br)cc(C(=O)O)c3)ccc21,165
